# Results as given in patent US11325899B2, “Benzofurane and benzothiophene derivatives as PGE2 receptor modulators” (IDORSIA PHARMACEUTICALS LTD, priority 2017, dated 2022).
# Target: T1, EP2 receptor (Homo sapiens, UniProt P43116)
# T1 construct: SF295 glioblastoma cells express high endogenous EP2 and no EP4; host or cells: SF295 glioblastoma cells
# Assay: hEP2 cAMP assay (SF295 glioblastoma cells, HTRF cAMP, PGE2 stimulation)
# Type: cell-based
# Settings: antagonistic activity
# In short: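 SF295 glioblastoma cells with endogenous EP2 and no EP4, in HBSS/HEPES/BSA with 2 mM IBMX, pre-incubated 45 min at room temperature with compound, then stimulated 30 min with 75 nM PGE2 (EC80). cAMP measured by HTRF; IC50 fitted from duplicate % cAMP versus DMSO control.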
# T1 sequence (P43116 whole entry): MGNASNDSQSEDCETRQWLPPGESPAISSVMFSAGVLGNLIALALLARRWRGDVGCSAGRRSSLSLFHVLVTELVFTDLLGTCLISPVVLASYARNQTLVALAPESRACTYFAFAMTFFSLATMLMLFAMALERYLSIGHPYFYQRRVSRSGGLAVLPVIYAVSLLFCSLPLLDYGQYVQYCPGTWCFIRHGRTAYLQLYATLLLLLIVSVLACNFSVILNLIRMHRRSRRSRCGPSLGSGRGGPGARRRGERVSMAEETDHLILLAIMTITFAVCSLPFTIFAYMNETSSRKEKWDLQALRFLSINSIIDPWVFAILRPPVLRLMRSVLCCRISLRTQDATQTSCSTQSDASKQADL
row,Structure (SMILES),IC50 [nM]
1,"Cc1sc2c(C)cccc2c1CCNc1cc(-c2ccc(C(=O)O)c(SCC(C)C)c2)ncn1 [Example 166, 4-{6-[2-(2,7-Dimethyl-benzo[b]thiophen-3-yl)-ethylamino]-pyrimidin-4-yl}-2-isobutylsulfanyl-benzoic acid]",183
2,"CCCc1cc(-c2cc(NCCc3c(C#N)sc4c(C)cc(F)cc34)ncn2)ccc1C(=O)O [Example 167, 4-{6-[2-(2-Cyano-5-fluoro-7-methyl-benzo[b]thiophen-3-yl)-ethylamino]-pyrimidin-4-yl}-2-propyl-benzoic acid]",11
3,"COc1cc(-c2cc(NCCc3c(C#N)sc4c(C)cc(F)cc34)ncn2)ccc1CC(=O)O [Example 168, (4-{6-[2-(2-Cyano-5-fluoro-7-methyl-benzo[b]thiophen-3-yl)-ethylamino]-pyrimidin-4-yl}-2-methoxy-phenyl)-acetic acid]",3030
4,"CCCOc1cc(-c2cc(NCCc3c(C#N)sc4c(C)cc(F)cc34)ncn2)ccc1CC(=O)O [Example 169, (4-{6-[2-(2-Cyano-5-fluoro-7-methyl-benzo[b]thiophen-3-yl)-ethylamino]-pyrimidin-4-yl}-2-propoxy-phenyl)-acetic acid]",142
5,"CCCc1cc(-c2cc(NCCc3c(C#N)sc4c(C)cc(F)cc34)ncn2)ccc1CC(=O)O [Example 170, (4-{6-[2-(2-Cyano-5-fluoro-7-methyl-benzo[b]thiophen-3-yl)-ethylamino]-pyrimidin-4-yl}-2-propyl-phenyl)-acetic acid]",116
6,"Cc1cc(F)cc2c(CCNc3cc(-c4ccc(CC(=O)O)c(OC(C)C)c4)ncn3)c(C#N)sc12 [Example 171, (4-{6-[2-(2-Cyano-5-fluoro-7-methyl-benzo[b]thiophen-3-yl)-ethylamino]-pyrimidin-4-yl}-2-isopropoxy-phenyl)-acetic acid]",275
7,"Cc1cc(F)cc2c(CCNc3cc(-c4ccc(C(=O)O)c(OC(C)C)c4)ncn3)c(C#N)sc12 [Example 172, 4-{6-[2-(2-Cyano-5-fluoro-7-methyl-benzo[b]thiophen-3-yl)-ethylamino]-pyrimidin-4-yl}-2-isopropoxy-benzoic acid]",50
8,"CCOc1cc(-c2cc(NCCc3c(C#N)sc4c(C)cc(F)cc34)ncn2)ccc1OCCC(=O)O [Example 176, 3-(4-{6-[2-(2-Cyano-5-fluoro-7-methyl-benzo[b]thiophen-3-yl)-ethylamino]-pyrimidin-4-yl}-2-ethoxy-phenoxy)-propionic acid]",37
9,"Cc1sc2c(C)cc(F)cc2c1CCNc1cc(-c2ccc(CC(=O)O)c(CC(C)C)c2)ncn1 [Example 182, (4-{6-[2-(5-Fluoro-2,7-dimethyl-benzo[b]thiophen-3-yl)-ethylamino]-pyrimidin-4-yl}-2-isobutyl-phenyl)-acetic acid]",617
10,"Cc1sc2c(C)cc(F)cc2c1CCNc1cc(-c2ccc(C(=O)O)c(OCC(C)C)c2)ncn1 [Example 184, 4-{6-[2-(5-Fluoro-2,7-dimethyl-benzo[b]thiophen-3-yl)-ethylamino]-pyrimidin-4-yl}-2-isobutoxy-benzoic acid]",39
11,"CCCc1cc(-c2cc(NCCc3c(C)sc4c(C)cc(F)cc34)ncn2)ccc1CC(=O)O [Example 186, (4-{6-[2-(5-Fluoro-2,7-dimethyl-benzo[b]thiophen-3-yl)-ethylamino]-pyrimidin-4-yl}-2-propyl-phenyl)-acetic acid]",309
12,"CCOc1cc(-c2cc(NCCc3c(C)sc4c(C)cc(F)cc34)ncn2)ccc1C(=O)C(=O)O [Example 189, (2-Ethoxy-4-{6-[2-(5-fluoro-2,7-dimethyl-benzo[b]thiophen-3-yl)-ethylamino]-pyrimidin-4-yl}-phenyl)-oxo-acetic acid]",27
13,"CCCOc1cc(-c2cc(NCCc3c(C)sc4c(C)cc(F)cc34)ncn2)ccc1CC(=O)O [Example 190, (4-{6-[2-(5-Fluoro-2,7-dimethyl-benzo[b]thiophen-3-yl)-ethylamino]-pyrimidin-4-yl}-2-propoxy-phenyl)-acetic acid]",274
